Several values for one entry are separate records, joined by “and”; a condition that tells them apart may be missing. Equal values may be shown once. Inconclusive results and toxic doses are left out. Rule as the data show it: active = T/C of 150% or more; inactive = T/C below 125%.
Test system: L1210 leukemia ip in BDF1 mice, survival T/C
Assay: NCI In Vivo Anticancer Drug Screen. Data for tumor model L1210 Leukemia (intraperitoneal) in B6D2F1 (BDF1) mice
Settings: endpoint: mean survival time, higher = longer survival
How it was run: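 Transplantable tumor model; survival measured in treated vs vehicle control mice. Value = treated/control.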

[1] = dose: 100.0 mg/kg/injection, schedule: Q04DX002 (ip), vehicle: Klucel (hydroxypropylcellulose) (HPC)
[2] = dose: 200.0 mg/kg/injection, schedule: Q04DX002 (ip), vehicle: Klucel (hydroxypropylcellulose) (HPC)
[3] = dose: 400.0 mg/kg/injection, schedule: Q04DX002 (ip), vehicle: Klucel (hydroxypropylcellulose) (HPC)
[4] = dose: 75.0 mg/kg/injection, schedule: Q01DX001 (ip), vehicle: saline
[5] = dose: 150.0 mg/kg/injection, schedule: Q01DX001 (ip), vehicle: saline
[6] = dose: 50.0 mg/kg/injection, schedule: Q01DX001 (ip), vehicle: carboxymethylcellulose (CMC)
[7] = dose: 100.0 mg/kg/injection, schedule: Q01DX001 (ip), vehicle: carboxymethylcellulose (CMC)
[8] = dose: 200.0 mg/kg/injection, schedule: Q01DX001 (ip), vehicle: carboxymethylcellulose (CMC)
[9] = dose: 400.0 mg/kg/injection, schedule: Q01DX001 (ip), vehicle: carboxymethylcellulose (CMC)
[10] = dose: 100.0 mg/kg/injection, schedule: Q01DX009 (ip), vehicle: Klucel (hydroxypropylcellulose) (HPC)
[11] = dose: 200.0 mg/kg/injection, schedule: Q01DX009 (ip), vehicle: Klucel (hydroxypropylcellulose) (HPC)
[12] = dose: 400.0 mg/kg/injection, schedule: Q01DX009 (ip), vehicle: Klucel (hydroxypropylcellulose) (HPC)
[13] = dose: 50.0 mg/kg/injection, schedule: Q01DX009 (ip), vehicle: Klucel (hydroxypropylcellulose) (HPC)
[14] = dose: 100.0 mg/kg/injection, schedule: Q01DX001 (ip), vehicle: saline
[15] = dose: 100.0 mg/kg/injection, schedule: Q01DX009 (ip), vehicle: saline
[16] = dose: 200.0 mg/kg/injection, schedule: Q01DX001 (ip), vehicle: saline
[17] = dose: 200.0 mg/kg/injection, schedule: Q01DX009 (ip), vehicle: saline
[18] = dose: 400.0 mg/kg/injection, schedule: Q01DX001 (ip), vehicle: saline
[19] = dose: 400.0 mg/kg/injection, schedule: Q01DX009 (ip), vehicle: saline
[20] = dose: 100.0 mg/kg/injection, schedule: Q04DX002 (ip), vehicle: saline
[21] = dose: 25.0 mg/kg/injection, schedule: Q01DX009 (ip), vehicle: Klucel (hydroxypropylcellulose) (HPC)
[22] = dose: 100.0 mg/kg/injection, schedule: Q04DX003 (ip), vehicle: saline with Tween-80
[23] = dose: 200.0 mg/kg/injection, schedule: Q04DX003 (ip), vehicle: saline with Tween-80
[24] = dose: 400.0 mg/kg/injection, schedule: Q04DX003 (ip), vehicle: saline with Tween-80
[25] = dose: 100.0 mg/kg/injection, schedule: Q01DX009 (ip), vehicle: saline with Tween-80
[26] = dose: 200.0 mg/kg/injection, schedule: Q01DX009 (ip), vehicle: saline with Tween-80
[27] = dose: 50.0 mg/kg/injection, schedule: Q01DX009 (ip), vehicle: saline with Tween-80

Measured: T/C

C=CCc1ccc(OC(=O)Nc2cccc(Cl)c2)c(OC)c1
inactive: dose: 100.0 mg/kg/injection, schedule: Q01DX009 (ip), vehicle: carboxymethylcellulose (CMC) 98 % of control and 102 % of control | [1] 95 % of control | dose: 100.0 mg/kg/injection, schedule: Q04DX002 (ip), vehicle: carboxymethylcellulose (CMC) 102 % of control | dose: 100.0 mg/kg/injection, schedule: Q04DX003 (ip), vehicle: carboxymethylcellulose (CMC) 101 % of control | dose: 200.0 mg/kg/injection, schedule: Q01DX009 (ip), vehicle: carboxymethylcellulose (CMC) 100 % of control and 92 % of control | [2] 92 % of control | dose: 200.0 mg/kg/injection, schedule: Q04DX002 (ip), vehicle: carboxymethylcellulose (CMC) 112 % of control | dose: 200.0 mg/kg/injection, schedule: Q04DX003 (ip), vehicle: carboxymethylcellulose (CMC) 95 % of control | dose: 400.0 mg/kg/injection, schedule: Q01DX009 (ip), vehicle: carboxymethylcellulose (CMC) 95 % of control and 98 % of control | [3] 95 % of control | dose: 400.0 mg/kg/injection, schedule: Q04DX002 (ip), vehicle: carboxymethylcellulose (CMC) 105 % of control | dose: 400.0 mg/kg/injection, schedule: Q04DX003 (ip), vehicle: carboxymethylcellulose (CMC) 100 % of control

O=[N+]([O-])c1ccc([As](=O)(O)c2ccc([N+](=O)[O-])cc2)cc1
inactive: [4] 95 % of control | [5] 100 % of control

Oc1ccccc1C1N(Cc2ccc(N(CCCl)CCCl)cc2Cl)CCCN1Cc1ccc(N(CCCl)CCCl)cc1Cl
inactive: [6] 96 % of control | [7] 90 % of control | [8] 94 % of control | [9] 102 % of control

ClC1(Cl)CC2CC1C1C3CC(C4OC34)C21 (centres undefined)
inactive: [6] 94 % of control and 119 % of control | [7] 94 % of control | [8] 105 % of control | [9] 98 % of control

CN(Cc1ccccc1)C(=O)c1cccc([N+](=O)[O-])c1
inactive: [10] 98 % of control | [11] 100 % of control | [12] 95 % of control

CCN(CC)c1ccc(C2NC(=O)c3ccccc3N2)cc1 (centres undefined)
inactive: [13] 106 % of control and 108 % of control | [10] 116 % of control | dose: 150.0 mg/kg/injection, schedule: Q01DX009 (ip), vehicle: Klucel (hydroxypropylcellulose) (HPC) 104 % of control and 117 % of control

COC(=O)Cc1cc(OC)c(OC)cc1I
inactive: [14] 105 % of control | [15] 96 % of control | [16] 100 % of control | [17] 102 % of control | [18] 102 % of control | [19] 102 % of control

COc1ccc(C)cc1NC(=O)Nc1cccc(C(F)(F)F)c1
inactive: [10] 92 % of control | [11] 86 % of control | [12] 95 % of control

Cc1nonc1-c1ccc2c(c1)OCO2
inactive: dose: 100.0 mg/kg/injection, schedule: Q04DX003 (ip), vehicle: Klucel (hydroxypropylcellulose) (HPC) 103 % of control | dose: 200.0 mg/kg/injection, schedule: Q04DX003 (ip), vehicle: Klucel (hydroxypropylcellulose) (HPC) 97 % of control | dose: 400.0 mg/kg/injection, schedule: Q04DX003 (ip), vehicle: Klucel (hydroxypropylcellulose) (HPC) 101 % of control

Cc1ccc(S(=O)(=O)OCC(F)(F)C(F)(F)C(F)(F)COS(=O)(=O)c2ccc(C)cc2)cc1
inactive: dose: 75.0 mg/kg/injection, schedule: Q04DX002 (ip), vehicle: saline with Tween-80 88 % of control | dose: 150.0 mg/kg/injection, schedule: Q04DX002 (ip), vehicle: saline with Tween-80 91 % of control | dose: 300.0 mg/kg/injection, schedule: Q04DX002 (ip), vehicle: saline with Tween-80 95 % of control

Cc1cc(=O)[nH]c(N=Nc2c(O)[nH]c3ccccc23)n1
inactive: [7] 98 % of control | [8] 93 % of control | [9] 88 % of control

CC(C)(C)NC(=O)NN(c1ccccc1)C1CCS(=O)(=O)C1 (centres undefined)
inactive: [20] 108 % of control | dose: 200.0 mg/kg/injection, schedule: Q04DX002 (ip), vehicle: saline 97 % of control | dose: 400.0 mg/kg/injection, schedule: Q04DX002 (ip), vehicle: saline 97 % of control

CC(=O)Nc1cc(Cl)ccc1SC1OC(COC(C)=O)C(OC(C)=O)C(OC(C)=O)C1OC(C)=O (centres undefined)
inactive: [14] 93 % of control | [16] 95 % of control | [18] 87 % of control

O=C(Nc1ccccc1Cl)Oc1c(Cl)cc(Cl)c2ccccc12
inactive: [21] 100 % of control | [13] 105 % of control | [1] 91 % of control

OCCOCCOCCOCCO
inactive: [14] 109 % of control | [16] 105 % of control | [18] 100 % of control

CCCCC(CCCC)C(=O)O
inactive: [7] 111 % of control | [8] 92 % of control | [9] 101 % of control

O=C1c2cccc3c2C2(C45c6c7cccc6C(=O)c6cccc(c64)C(=O)c4cccc(c45)C7=O)c4c1cccc4C(=O)c1cccc(c12)C3=O
inactive: [15] 103 % of control | [22] 94 % of control | [17] 95 % of control | [23] 107 % of control | [19] 95 % of control | [24] 94 % of control

CCOC(=O)c1cc(OC(C)=O)c2c(ccc3ccccc32)c1C
inactive: [10] 98 % of control | [11] 88 % of control | [12] 91 % of control

CC12CC3CC(C)(C1)CC(OCCN)(C3)C2
inactive: dose: 25.0 mg/kg/injection, schedule: Q01DX009 (ip), vehicle: saline 94 % of control | dose: 25.0 mg/kg/injection, schedule: Q04DX002 (ip), vehicle: saline 98 % of control | dose: 50.0 mg/kg/injection, schedule: Q01DX009 (ip), vehicle: saline 108 % of control | dose: 50.0 mg/kg/injection, schedule: Q04DX002 (ip), vehicle: saline 98 % of control | [15] 92 % of control | [20] 110 % of control and 117 % of control

CCOC(=O)C1(c2cc(NS(=O)(=O)N(C)C)c(Cl)cc2NS(=O)(=O)N(C)C)CCCC1=O (centres undefined)
inactive: dose: 50.0 mg/kg/injection, schedule: Q01DX001 (ip), vehicle: saline 104 % of control | [14] 102 % of control | [16] 91 % of control

O=C1OC(=O)C2CC(Br)C(Br)CC12 (centres undefined)
inactive: [25] 92 % of control | [22] 94 % of control and 102 % of control | [26] 89 % of control | [23] 94 % of control | dose: 400.0 mg/kg/injection, schedule: Q01DX009 (ip), vehicle: saline with Tween-80 89 % of control | [24] 91 % of control and 93 % of control

CS(=O)(=O)Oc1ccc(S(=O)(=O)F)cc1Cl
inactive: [1] 102 % of control | [2] 94 % of control

Cc1ccc(CNc2cc(C)ccn2)cc1
inactive: [27] 96 % of control | [25] 101 % of control | [26] 101 % of control

Cc1ncnc2[nH]c(=S)[nH]c12
inactive: [4] 105 % of control | [5] 101 % of control | dose: 300.0 mg/kg/injection, schedule: Q01DX001 (ip), vehicle: saline 100 % of control

COc1ccc([N+](=O)[O-])cc1CN(C)C(C)C
inactive: dose: 12.5 mg/kg/injection, schedule: Q01DX009 (ip), vehicle: Klucel (hydroxypropylcellulose) (HPC) 97 % of control | dose: 12.5 mg/kg/injection, schedule: Q04DX003 (ip), vehicle: Klucel (hydroxypropylcellulose) (HPC) 97 % of control | [21] 97 % of control | dose: 25.0 mg/kg/injection, schedule: Q04DX003 (ip), vehicle: Klucel (hydroxypropylcellulose) (HPC) 100 % of control | [13] 92 % of control | dose: 50.0 mg/kg/injection, schedule: Q04DX003 (ip), vehicle: Klucel (hydroxypropylcellulose) (HPC) 97 % of control

ClP1(c2ccccc2)=NP(Cl)(c2ccccc2)=NP(Cl)(c2ccccc2)=NP(Cl)(c2ccccc2)=N1 (centres undefined)
inactive: [27] 97 % of control | [25] 89 % of control

NC(CC1CCCCC1)C(=O)O (centres undefined)
inactive: [1] 91 % of control | [2] 88 % of control | [3] 91 % of control
